Numbered stars: 1 amine (or outer) side, 2 acyl side, 3 side chain; on linkers, the order of the positions; unused ones are H or OH. Bridge positions count the residues as written; N and C are the ends. Square brackets hold non-standard residues; d marks the D form. Peptide text beside a SMILES is read from it. TATA = O=C(CC[*:1])N1CN(C(=O)CC[*:2])CN(C(=O)CC[*:3])C1; Cba = N[C@@H](CC1CCC1)C(=O)O; dNle = CCCC[C@@H](N)C(=O)O; Pip = O=C(O)[C@@H]1CCCCN1
Target: T1, Fc-tagged human NKp46 (Homo sapiens, UniProt O76036)
T1 construct: purchased ACROBiosystems NC1-H5257
Test: NKp46 SPR assay (Method 1 and/or Method 2)
Assay type: binding
Conditions: SPR Method 1 and/or Method 2, Table 3B
Experimental: SPR experiments were performed to determine ka (M^−1s^−1), kd (s^−1), KD (nM) values (where measurable) of various bicyclic peptides to immobilised NKp46.
For analysis of peptide binding to NKp46, a Biacore 3000 instrument was used with a Cytiva Streptavidin chip. Capture of the protein (recombinant human NKp46-Fc fusion biotinylated via Avi-tag) was carried out at 25° C. with HBS-N (10 mM HEPES, 0.15 M NaCl, pH 7.4) as the running buffer and biotinylated NKp46 was captured to a level of 400-800 RU using a dilution of protein to 0.2 μM in buffer. Buffer was then changed to PBS/0.05% Tween 20 and a dilution series of the peptides was prepared in this buffer with a final DMSO concentration of 0.5% with a top peptide concentration of 100 nM-5000 nM and 6 further 2 or 3-fold dilutions. The SPR analysis was run at 25° C. and a flow rate of 50 μl/min with 60 seconds association and 200-400 seconds dissociation time. Data were corrected for DMSO excluded volume effects. All data were double-referenced for blank injections and reference surface using standard processing procedures and data processing and kinetic fitting were performed using Scrubber software, version 2.0c (BioLogic Software). Data were fitted using simple 1:1 binding model allowing for mass transport effects where appropriate.
Peptides were tested against Fc-tagged human NKp46 (ACROBiosystems, cat no. NC1-H5257).
For analysis of peptide binding, a Biacore 8k+ instrument was used with a CM5 chip (Cytiva). All experiments were carried out at 25° C. Anti-human IgG (Fc) antibody (Cytiva) was immobilized on all flow cells by standard amine coupling chemistry. The running buffer was HBS-N(Cytiva, 10 mM HEPES, 0.15 M NaCl, pH 7.4) and the flow rate was 10 μL/min. The carboxymethyl dextran surface was activated with a 1:1 ratio of 0.4 M 1-ethyl-3-(3-dimethylaminopropyl) carbodiimide hydrochloride (EDC)/0.1 M N-hydroxy succinimide (NHS) (Cytiva) for 420s. […] Residual activated groups were blocked with a 420 s injection of 1 M ethanolamine (pH 8.5). The final surface density was 3000-5000 RU. Fc-tagged human NKp46 was diluted to 0.1 μM in HBS-N and was captured on flow cell 2 only of the sensor chip at a flow rate of 10 μL/min to 500-1000 RU. The buffer was then changed to PBS-P+(Cytiva) supplemented with 2% DMSO. […] The flow rate was 50 μL/min with 60 s association and 400 s dissociation. Data were corrected for DMSO volume exclusion effects. All data were double-referenced against blank injections and reference surface response using standard processing procedures. Data processing and kinetic fitting was performed using Biacore Insight Evaluation Software with Extended Screening and Characterization Extension (Cytiva). Data were fitted using steady state affinity 1:1 binding model to determine KD. Data were fitted using kinetic 1:1 binding model to determine kinetic constants where appropriate.

T1 sequence (O76036 22-304): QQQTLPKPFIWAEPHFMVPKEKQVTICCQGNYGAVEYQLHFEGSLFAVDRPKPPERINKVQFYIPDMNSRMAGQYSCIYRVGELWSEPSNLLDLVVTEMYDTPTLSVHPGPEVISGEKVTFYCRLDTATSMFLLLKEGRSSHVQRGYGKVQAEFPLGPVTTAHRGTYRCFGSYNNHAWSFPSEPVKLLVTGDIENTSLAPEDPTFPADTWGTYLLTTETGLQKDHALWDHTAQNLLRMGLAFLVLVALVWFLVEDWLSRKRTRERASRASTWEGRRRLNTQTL

Row | Structure (SMILES) | Kd [nM]
1 | CCCC[C@H]1NC(=O)[C@@H]2CSCCC(=O)N3CN(CN(C3)C(=O)CCSC[C@H](NC(C)=O)C(=O)N[C@@H](Cc3ccc(O)cc3)C(=O)N[C@@H](CC3CCC3)C(=O)N3CCC[C@H]3C(=O)N[C@@H](CC(=O)O)C(=O)N[C@@H](Cc3ccc(O)cc3)C(=O)N[C@@H](CC(C)C)C(=O)N2)C(=O)CCSC[C@@H](C(N)=O)NC(=O)[C@H](Cc2ccc(O)cc2)NC(=O)[C@H](CCC(=O)O)NC(=O)[C@H](CC(=O)O)NC1=O [BCY19685, Ac-(SEQ ID NO: 149)] (Ac-CY[Cba]PDYLC[dNle]DEYC-NH2; linker 1-8-13 via TATA) | 10
2 | CSCC[C@@H]1NC(=O)[C@@H]2CSCCC(=O)N3CN(CN(C3)C(=O)CCSC[C@@H](C(=O)N[C@@H](C)C(N)=O)NC(=O)[C@H](C(C)C)NC(=O)[C@H](CCCCN)NC(=O)CNC(=O)[C@H](C)NC(=O)[C@H](CC(C)C)NC1=O)C(=O)CCSC[C@H](NC(=O)[C@H](C)N)C(=O)N[C@@H](CC(N)=O)C(=O)N[C@@H](CC(C)C)C(=O)N[C@@H](CCC(N)=O)C(=O)N[C@@H](C)C(=O)N1CCC[C@H]1C(=O)N2 [BCY18302, A-(SEQ ID NO: 66)-A] (H-ACNLQAPCMLAGKVCA-NH2; linker 2-8-15 via TATA; N-terminus assumed) | 5380
3 | CSCC[C@@H]1NC(=O)[C@@H]2CSCCC(=O)N3CN(CN(C3)C(=O)CCSC[C@@H](C(=O)N[C@@H](C)C(N)=O)NC(=O)[C@H](C(C)C)NC(=O)[C@H](CCCCN)NC(=O)CNC(=O)[C@H]([C@@H](C)O)NC(=O)[C@H](CC(C)C)NC1=O)C(=O)CCSC[C@H](NC(=O)[C@H](C)N)C(=O)N[C@@H](CC(N)=O)C(=O)N[C@@H](CC(C)C)C(=O)N[C@@H](CCC(N)=O)C(=O)N[C@@H](C)C(=O)N1CCCC[C@H]1C(=O)N2 [BCY19701, A-(SEQ ID NO: 92)-A] (H-ACNLQA[Pip]CMLTGKVCA-NH2; linker 2-8-15 via TATA) | 4030
4 | CSCC[C@@H]1NC(=O)[C@@H]2CSCCC(=O)N3CN(CN(C3)C(=O)CCSC[C@@H](C(=O)N[C@@H](C)C(N)=O)NC(=O)[C@H](C(C)C)NC(=O)[C@H](CCCCN)NC(=O)CNC(=O)[C@H]([C@@H](C)O)NC(=O)[C@H](C(C)C)NC1=O)C(=O)CCSC[C@H](NC(=O)[C@H](C)N)C(=O)N[C@@H](CC(N)=O)C(=O)N[C@@H](CC(C)C)C(=O)N[C@@H](CCC(N)=O)C(=O)N[C@@H](C)C(=O)N1CCC[C@H]1C(=O)N2 [BCY19702, A-(SEQ ID NO: 93)-A] (H-ACNLQAPCMVTGKVCA-NH2; linker 2-8-15 via TATA; N-terminus assumed) | 2680
5 | CSCC[C@@H]1NC(=O)[C@@H]2CSCCC(=O)N3CN(CN(C3)C(=O)CCSC[C@@H](C(=O)N[C@@H](C)C(N)=O)NC(=O)[C@@H]3CCCN3C(=O)[C@H](Cc3ccccc3)NC(=O)[C@H](CCCCN)NC1=O)C(=O)CCSC[C@H](NC(=O)[C@H](C)N)C(=O)N[C@@H](CC(N)=O)C(=O)N[C@@H](CC(C)C)C(=O)N[C@@H](CCC(N)=O)C(=O)N[C@@H](CC(N)=O)C(=O)N1CCC[C@H]1C(=O)N2 [BCY15102, A-(SEQ ID NO: 2)-A] (H-ACNLQNPCMKFPCA-NH2; linker 2-8-13 via TATA; C-terminus assumed) | 1090 ± 99
6 | CSCC[C@@H]1NC(=O)[C@@H]2CSCCC(=O)N3CN(CN(C3)C(=O)CCSC[C@@H](C(=O)N[C@@H](C)C(N)=O)NC(=O)[C@H](C(C)C)NC(=O)[C@H](CCCCN)NC(=O)CNC(=O)[C@H]([C@@H](C)O)NC(=O)[C@H](CCC(N)=O)NC1=O)C(=O)CCSC[C@H](NC(=O)[C@H](C)N)C(=O)N[C@@H](CC(N)=O)C(=O)N[C@@H](CC(C)C)C(=O)N[C@@H](CCC(N)=O)C(=O)N[C@@H](CCC(N)=O)C(=O)N[C@@H](C)C(=O)N2 [BCY19713, A-(SEQ ID NO: 102)-A] (H-ACNLQQACMQTGKVCA-NH2; linker 2-8-15 via TATA; N-terminus assumed) | 1830

Other lines, results leading:

Row | Kd [nM] | Structure (SMILES)
7 | 2380 | CSCC[C@@H]1NC(=O)[C@@H]2CSCCC(=O)N3CN(CN(C3)C(=O)CCSC[C@H](NC(=O)[C@@H](N)CCCCN)C(=O)N[C@@H](CC(N)=O)C(=O)N[C@@H](CC(C)C)C(=O)N[C@@H](CCC(N)=O)C(=O)N[C@@H](C)C(=O)N3CCC[C@H]3C(=O)N2)C(=O)CCSC[C@@H](C(=O)N[C@@H](C)C(N)=O)NC(=O)[C@H](C(C)C)NC(=O)[C@H](CCCCN)NC(=O)CNC(=O)[C@H]([C@@H](C)O)NC(=O)[C@H](CC(C)C)NC1=O [BCY19695, K-(SEQ ID NO: 4)-A] (H-KCNLQAPCMLTGKVCA-NH2; linker 2-8-15 via TATA; N-terminus assumed)
8 | 1660 ± 544 | CC(C)C[C@@H]1NC(=O)[C@@H](NC(=O)[C@H](C)N)CSCCC(=O)N2CN3CN(C2)C(=O)CCSC[C@H](NC(=O)[C@H](Cc2c[nH]cn2)NC(=O)[C@H](CC(=O)O)NC(=O)[C@H](Cc2c[nH]cn2)NC(=O)[C@H](CC(C)C)NC1=O)C(=O)N1CCC[C@H]1C(=O)N[C@@H](CC(N)=O)C(=O)N[C@@H]([C@@H](C)O)C(=O)N[C@@H](Cc1c[nH]cn1)C(=O)N1CCC[C@H]1C(=O)N[C@@H](CCCCN)C(=O)N[C@@H](CC(C)C)C(=O)N[C@H](C(=O)N[C@@H](C)C(N)=O)CSCCC3=O [BCY15103, A-(SEQ ID NO: 5)-A] (H-ACLLHDHCPNTHPKLCA-NH2; linker 2-8-16 via TATA)
9 | 1510 | CSCC[C@@H]1NC(=O)[C@@H]2CSCCC(=O)N3CN(CN(C3)C(=O)CCSC[C@@H](C(=O)N[C@@H](C)C(N)=O)NC(=O)[C@H](C(C)C)NC(=O)[C@H](CCCCN)NC(=O)CNC(=O)[C@H]([C@@H](C)O)NC(=O)[C@H](CCC(=O)O)NC1=O)C(=O)CCSC[C@H](NC(=O)[C@H](C)N)C(=O)N[C@@H](CC(N)=O)C(=O)N[C@@H](CC(C)C)C(=O)N[C@@H](CCC(N)=O)C(=O)N[C@@H](C)C(=O)N1CCC[C@H]1C(=O)N2 [BCY18316, A-(SEQ ID NO: 78)-A] (H-ACNLQAPCMETGKVCA-NH2; linker 2-8-15 via TATA; C-terminus assumed)
10 | 44 | CC(C)C[C@@H]1NC(=O)[C@H](Cc2ccc(O)cc2)NC(=O)[C@H](CC(=O)O)NC(=O)[C@@H]2CCCN2C(=O)[C@H](CC(C)C)NC(=O)[C@H](Cc2ccc(O)cc2)NC(=O)[C@@H](NC(=O)[C@H](C)N)CSCCC(=O)N2CN3CN(C2)C(=O)CCSC[C@@H](C(=O)N[C@@H](C)C(N)=O)NC(=O)[C@H](Cc2ccc(O)c(C(C)(C)C)c2)NC(=O)[C@H](CCC(=O)O)NC(=O)[C@H](CC(=O)O)NC(=O)CNC(=O)[C@H](CSCCC3=O)NC1=O [BCY15652, A-(SEQ ID NO: 109)-A]
11 | 4030 | CSCC[C@@H]1NC(=O)[C@@H]2CSCCC(=O)N3CN(CN(C3)C(=O)CCSC[C@@H](C(=O)N[C@@H](C)C(N)=O)NC(=O)[C@H](C(C)C)NC(=O)[C@H](CCCCN)NC(=O)CNC(=O)[C@H]([C@@H](C)O)NC(=O)[C@H](C)NC1=O)C(=O)CCSC[C@H](NC(=O)[C@H](C)N)C(=O)N[C@@H](CC(N)=O)C(=O)N[C@@H](CC(C)C)C(=O)N[C@@H](CCC(N)=O)C(=O)N[C@@H](C)C(=O)N1CCC[C@H]1C(=O)N2 [BCY18301, A-(SEQ ID NO: 65)-A] (H-ACNLQAPCMATGKVCA-NH2; linker 2-8-15 via TATA; C-terminus assumed)
12 | 3190 | CC(C)C[C@@H]1NC(=O)[C@H](CC(=O)O)NC(=O)[C@@H](NC(=O)[C@H](C)N)CSCCC(=O)N2CN3CN(C2)C(=O)CCSC[C@H](NC(=O)[C@H](CC(N)=O)NC(=O)[C@H](Cc2c[nH]cn2)NC(=O)[C@H]([C@@H](C)O)NC(=O)[C@H]([C@@H](C)O)NC1=O)C(=O)N[C@@H](CCC(N)=O)C(=O)N[C@@H](Cc1c[nH]c2ccccc12)C(=O)NCC(=O)N[C@@H](C)C(=O)N[C@H](C(=O)N[C@@H](C)C(N)=O)CSCCC3=O [BCY18272, A-(SEQ ID NO: 120)-A] (H-ACDLTTHNCQWGACA-NH2; linker 2-9-14 via TATA)
13 | 1640 | CC[C@H](C)[C@@H]1NC(=O)CNC(=O)[C@H](Cc2c[nH]c3ccccc23)NC(=O)[C@H](C)NC(=O)[C@@H]2CSCCC(=O)N3CN(CN(C3)C(=O)CCSC[C@@H](C(=O)N[C@@H](C)C(N)=O)NC1=O)C(=O)CCSC[C@H](NC(=O)[C@H](C)N)C(=O)N[C@@H](CC(=O)O)C(=O)N[C@@H](CC(C)C)C(=O)N[C@@H]([C@@H](C)O)C(=O)N[C@@H]([C@@H](C)O)C(=O)N[C@@H](Cc1c[nH]cn1)C(=O)N[C@@H](CC(N)=O)C(=O)N2 [BCY18269, A-(SEQ ID NO: 119)-A] (H-ACDLTTHNCAWGICA-NH2; linker 2-9-14 via TATA)

Source: patent US20240108738A1, “BICYCLIC PEPTIDE LIGANDS SPECIFIC FOR NK CELLS” (Bicycle Tx Limited, priority 2021, published 2024)
